According to patent publication US5466712A, “Substituted n-aryl-1,2-diaminocyclobutene-3,4-diones” (American Home Products Corporation, priority 1994, dated 1995):

Test system: Isolated Rat Bladder Strips
Test: Inhibition of Contractions in Isolated Rat Bladder Strips (15 mM KCl-enhanced contractions)
Format: cell-based, Sprague-Dawley rats
Settings: 0.5 h, 30 min challenge; for IC50: concentration eliciting 50% inhibition of pre-drug contractile activity; for inhibition at 30 µM: read-out: Inhibition of Force (%) at (x) μM
Excerpt: Smooth muscle relaxing activity of the compounds of this invention was established in accordance with standard pharmaceutically accepted test procedures in representative compounds as follows:
Sprague-Dawley rats (150-200 g) are rendered unconscious by CO2 asphyxiation and then euthanized by cervical dislocation. The bladder is removed into warm (37 deg. C.) physiological salt solution (PSS) of the following composition (mM): NaCl, 118.4; KCl, 4.7; […]; NaHCO3, 24.9; KH2 PO4, 1.2; glucose, 11.1; EDTA, 0.023; gassed with […]; pH 7.4. The bladder is opened and then cut into strips 1-2 mm in width and 7-10 mm in length. The strips are subsequently suspended in a 10 mL tissue bath under an initial resting tension of 1.5 g. The strips are held in place by two surgical clips one of which is attached to fixed hook while the other is attached to an isometric force transducer. […] The carbachol is then washed out and the tissue allowed to relax to its resting level of activity. Following 1 further 30 min period of recovery an additional 15 mM KCl are introduced into the tissue bath. This increase in KCl concentration results in a large increase in the amplitude of spontaneous contractions (and initiation of contractions in previously quiescent strips) superimposed upon a small increase in basal tone. Following stabilization of this enhanced level of contractile activity, incremental increases in the concentration of test compound or vehicle are introduced into the tissue bath. Contractile activity is measured for each compound or vehicle concentration during the last […] of a 30 min challenge.
Isometric force developed by the bladder strips is measured using a […] to elicit 50% inhibition of pre-drug contractile activity (IC50 concentration) is calculated from this concentration-response curve. The maximum percentage inhibition of contractile activity evoked by a test compound is also recorded for concentrations of test compound<or equal to 30 μM.

Row | IC50 | Compound | inhibition at 30 µM
1 | 2300 nM | C[C@@H](Nc1c(Nc2ccncc2)c(=O)c1=O)c1ccccc1 [Example 4, 3-((R)-1-Phenyl-ethylamino)-4-(pyridin-4-ylamino)-cyclobut-3-ene-1,2-dione] | –
2 | 56 nM | C[C@@H](Nc1c(Nc2ccc(C#N)cc2)c(=O)c1=O)c1ccccc1 [Example 1, 4-[3,4-Dioxo-2-((R)-1-phenyl-ethylamino)-cyclobut-1-enylamino]-benzonitrile] | –
3 | – | CC(C)(Nc1c(Nc2ccc(C#N)cc2)c(=O)c1=O)c1ccccc1 [Example 9, 4-[3,4-Dioxo-2-(1-methyl-1-phenyl-ethylamino)-cyclobut-1-enylamino]-benzonitrile] | 22%
4 | – | C[C@H](Nc1c(Nc2ccc(C#N)cc2)c(=O)c1=O)c1ccccc1 [Example 5, 4-[3.4-Dioxo-2-((S)-1-phenyl-ethylamino)-cyclobut-1-enylamino]-benzonitrile] | 38%
5 | – | CC[C@H](Nc1c(Nc2ccc(C#N)cc2)c(=O)c1=O)c1ccccc1 [Example 11, 4-[3,4-Dioxo-2-((S)-1-phenyl-propylamino)-cyclobut-1-enylamino]-benzonitrile] | 28%
